Laboratory results from patent US10101324B2, “Non-competitive immunoassays to detect small molecules using nanopeptamers” (priority 2012, dated 2018).

Experiments:
MoAb 5.6 = settings: clomazone, Carlomagno et al. 2010; cited from earlier work
MoAb 14D7 = settings: molinate; same antibody MoAb 14D7; Rufo et al. 2004; cited from earlier work
[1] = tested on: anti-molinate monoclonal antibody (MoAb 14D7); experiment: Cross-reactivity of the pA-Nanopeptamer noncompetitive ELISA with related thiocarbamate pesticides; assay type: binding

Structure (SMILES)	Cross reactivity, pA-Nanopeptamer assay [1] [%]	other results
CC1(C)CON(Cc2ccccc2Cl)C1=O [clomazone]		IC50 of the competitive format (MoAb 5.6): 28 ± 1.1 ng/mL
CCSC(=O)N1CCCCCC1 [Molinate]		IC50 of the competitive ELISA (MoAb 14D7): 69 ± 0.5 ng/mL
CCN(CC)C(=O)SCc1ccc(Cl)cc1 [thiobencarb]	0	
CCCCN(CC)C(=O)SCCC [Pebulate]	6	
